According to US20080009418A1, “Selective Inhibitors” (Alchemia LTD., priority 2004, published 2008):

Tests used:
Human δ-opioid (DOP) = target: T1, Human δ-opioid (DOP) (Homo sapiens, UniProt P41143); assay: Radioligand binding, human δ-opioid (DOP) membranes, FlashPlate, [3H]-Bremazocine; conditions: compound at 10 μM, [3H]-Bremazocine
T1 construct: purchased Perkin Elmer Biosignal
How it was run: (§1)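 Cloned human receptor membranes were coated onto FlashPlate wells and incubated with radioligand and compound (added from a 0.5 mM DMSO daughter plate) for 1 hour at room temperature in the dark. Scintillation counting gave percent inhibition, with DMSO defining total and reference ligand defining non-specific binding.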

Human κ-Opioid (KOP) = target: T2, Human κ-Opioid (KOP) (Homo sapiens, UniProt P41145); assay: Radioligand binding, human κ-opioid (KOP) membranes, filtration, [3H]-Diprenorphine; conditions: compound at 10 μM, [3H]-Diprenorphine
T2 construct: purchased Perkin Elmer Biosignal
How it was run: (§2)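 Membranes from cloned human receptors were incubated with compound and radioligand for 1 hour at room temperature. Bound ligand was collected on 0.3% PEI-soaked filters, washed with cold 50 mM Tris-HCl pH 7.4, and counted by scintillation. Percent inhibition was computed against DMSO totals and reference-ligand nonspecific wells.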

Human Melanocortin (MC3) = target: T3, Human Melanocortin (MC3) (Homo sapiens, UniProt P41968); assay: Radioligand binding, human melanocortin MC3 membranes, FlashPlate, [125I]-NDP-αMSH; conditions: compound at 10 μM, [125I]-NDP-αMSH
T3 construct: purchased Perkin Elmer Biosignal
How it was run: as §1

Human Melanocortin (MC4) = target: T4, Human Melanocortin (MC4) (Homo sapiens, UniProt P32245); assay: Radioligand binding, human melanocortin MC4 membranes, FlashPlate, [125I]-NDP-αMSH; conditions: compound at 10 μM, [125I]-NDP-αMSH
T4 construct: purchased Perkin Elmer Biosignal
How it was run: as §1

Human melanocortin (MC5) = target: T5, Human melanocortin (MC5) (Homo sapiens, UniProt P33032); assay: Radioligand binding, human melanocortin MC5 membranes, FlashPlate, [125I]-NDP-αMSH; conditions: compound at 10 μM, [125I]-NDP-αMSH
T5 construct: purchased Perkin Elmer Biosignal
How it was run: as §1

[1] = target: T6, Human melanin-concentrating hormone (MCH1) (Homo sapiens, UniProt Q99705); assay: Radioligand binding, human melanin-concentrating hormone MCH1 membranes, FlashPlate, [125I]-S36057; conditions: compound at 10 μM
T6 construct: purchased Perkin Elmer Biosignal
How it was run: as §1

Human μ-opioid (MOP) = target: T7, Human μ-opioid (MOP) (Homo sapiens, UniProt P35372); assay: Radioligand binding, human μ-opioid (MOP) membranes, FlashPlate, [3H]-Naloxone; conditions: compound at 10 μM, [3H]-Naloxone
T7 construct: purchased Perkin Elmer Biosignal
How it was run: as §1

Human neurokinin (NK1) = target: T8, Human neurokinin (NK1) (Homo sapiens, UniProt P25103); assay: Radioligand binding, human neurokinin NK1 membranes, filtration, [125I]-Substance P; conditions: compound at 10 μM, [125I]-Substance P
T8 construct: purchased Perkin Elmer Biosignal
How it was run: as §2

[2] = target: T9, Human neuropeptide Y (NPY-Y1) (Homo sapiens, UniProt P25929); assay: Radioligand binding, human neuropeptide Y NPY-Y1 membranes, FlashPlate, [125I]-PYY; conditions: compound at 10 μM, [125I]-PYY
T9 construct: purchased Perkin Elmer Biosignal
T9 sequence (P25929 1-384): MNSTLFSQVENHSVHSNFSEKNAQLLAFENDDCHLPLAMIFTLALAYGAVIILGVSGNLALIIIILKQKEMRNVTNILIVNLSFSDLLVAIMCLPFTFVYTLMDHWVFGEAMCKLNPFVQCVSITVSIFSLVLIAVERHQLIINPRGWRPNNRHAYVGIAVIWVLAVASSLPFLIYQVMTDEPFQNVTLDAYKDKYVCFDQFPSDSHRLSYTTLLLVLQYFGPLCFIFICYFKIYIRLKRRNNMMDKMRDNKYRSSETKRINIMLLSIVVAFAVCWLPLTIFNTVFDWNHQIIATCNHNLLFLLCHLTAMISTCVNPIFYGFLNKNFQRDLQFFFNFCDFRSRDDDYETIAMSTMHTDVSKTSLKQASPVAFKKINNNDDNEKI
How it was run: as §1

Human opioid (ORL1) = target: T10, Human opioid (ORL1) (Homo sapiens, UniProt P41146); assay: Radioligand binding, human opioid ORL1 membranes, FlashPlate, [125I]-Nociceptin; conditions: compound at 10 μM, [125I]-Nociceptin
T10 construct: purchased Perkin Elmer Biosignal
How it was run: as §1

Mouse urotensin (mUR2) = target: T11, Mouse urotensin (mUR2) (Mus musculus, UniProt Q8VIH9); assay: Radioligand binding, mouse urotensin mUR2 membranes, FlashPlate, [125I]-Urotensin II; conditions: compound at 10 μM, [125I]-Urotensin II
T11 construct: purchased Perkin Elmer Biosignal
T11 sequence (Q8VIH9 1-385): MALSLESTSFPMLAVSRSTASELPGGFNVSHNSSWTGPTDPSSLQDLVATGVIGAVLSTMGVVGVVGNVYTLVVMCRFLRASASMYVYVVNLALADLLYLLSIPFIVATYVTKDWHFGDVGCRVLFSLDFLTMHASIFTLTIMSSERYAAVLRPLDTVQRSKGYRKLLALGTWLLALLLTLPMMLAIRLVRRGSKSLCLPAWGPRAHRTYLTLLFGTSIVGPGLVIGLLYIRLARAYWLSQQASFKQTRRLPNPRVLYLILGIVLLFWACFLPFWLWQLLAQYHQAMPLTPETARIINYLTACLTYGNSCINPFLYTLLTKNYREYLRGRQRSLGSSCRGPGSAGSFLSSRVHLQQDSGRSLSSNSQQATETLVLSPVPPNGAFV
How it was run: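 Cloned mouse urotensin (mUR2) receptor membranes from Perkin Elmer Biosignal were immobilized in FlashPlate microplates using a proprietary coating. Each well got 19.5 μl buffer, then 0.5 μl of DMSO, reference ligand, or compound. Adding 5 μl of [125I]-Urotensin II, diluted to 5× final concentration in binding buffer, started binding. Plates were sealed with TopSeal-A and incubated 1 hour at room temperature in the dark. Wells were counted for 30 seconds each on a TopCount after a 60-second delay, and percentage inhibition was calculated.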

T5 sequence (P33032 whole entry): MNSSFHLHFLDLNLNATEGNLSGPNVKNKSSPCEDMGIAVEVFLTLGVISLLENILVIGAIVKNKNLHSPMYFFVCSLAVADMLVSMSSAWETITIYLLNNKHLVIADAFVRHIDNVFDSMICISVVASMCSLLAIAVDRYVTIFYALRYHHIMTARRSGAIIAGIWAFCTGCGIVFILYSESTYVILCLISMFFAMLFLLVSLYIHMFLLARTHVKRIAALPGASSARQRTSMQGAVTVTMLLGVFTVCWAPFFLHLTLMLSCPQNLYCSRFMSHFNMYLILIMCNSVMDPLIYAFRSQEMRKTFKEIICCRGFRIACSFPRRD
T4 sequence (P32245 whole entry): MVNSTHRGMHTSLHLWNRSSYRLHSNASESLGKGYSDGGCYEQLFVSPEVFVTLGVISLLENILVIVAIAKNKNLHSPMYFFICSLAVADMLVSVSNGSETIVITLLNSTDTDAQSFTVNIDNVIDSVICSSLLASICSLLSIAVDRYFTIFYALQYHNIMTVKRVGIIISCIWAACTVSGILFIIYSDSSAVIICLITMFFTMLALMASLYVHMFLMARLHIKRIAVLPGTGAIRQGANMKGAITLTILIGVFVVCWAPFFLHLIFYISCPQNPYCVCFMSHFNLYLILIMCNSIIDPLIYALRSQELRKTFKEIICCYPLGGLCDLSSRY
T6 sequence (Q99705 whole entry): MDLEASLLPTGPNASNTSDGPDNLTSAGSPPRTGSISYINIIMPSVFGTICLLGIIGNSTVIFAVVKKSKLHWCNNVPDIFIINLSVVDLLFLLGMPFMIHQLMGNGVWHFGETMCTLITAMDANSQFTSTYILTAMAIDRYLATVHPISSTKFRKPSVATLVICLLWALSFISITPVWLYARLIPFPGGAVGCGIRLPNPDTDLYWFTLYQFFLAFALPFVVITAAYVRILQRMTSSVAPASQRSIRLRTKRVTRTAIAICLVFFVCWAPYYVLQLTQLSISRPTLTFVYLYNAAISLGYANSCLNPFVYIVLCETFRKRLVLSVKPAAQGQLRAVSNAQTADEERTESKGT
T3 sequence (P41968 whole entry): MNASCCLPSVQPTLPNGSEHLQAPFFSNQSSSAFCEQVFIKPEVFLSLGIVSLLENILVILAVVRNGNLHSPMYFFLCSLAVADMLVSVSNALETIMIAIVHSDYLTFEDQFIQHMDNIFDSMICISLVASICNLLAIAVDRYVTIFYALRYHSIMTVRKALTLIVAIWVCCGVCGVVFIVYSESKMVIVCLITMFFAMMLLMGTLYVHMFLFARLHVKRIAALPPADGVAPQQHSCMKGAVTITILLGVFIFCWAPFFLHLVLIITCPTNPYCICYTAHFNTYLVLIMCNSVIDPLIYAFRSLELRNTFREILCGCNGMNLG
T2 sequence (P41145 whole entry): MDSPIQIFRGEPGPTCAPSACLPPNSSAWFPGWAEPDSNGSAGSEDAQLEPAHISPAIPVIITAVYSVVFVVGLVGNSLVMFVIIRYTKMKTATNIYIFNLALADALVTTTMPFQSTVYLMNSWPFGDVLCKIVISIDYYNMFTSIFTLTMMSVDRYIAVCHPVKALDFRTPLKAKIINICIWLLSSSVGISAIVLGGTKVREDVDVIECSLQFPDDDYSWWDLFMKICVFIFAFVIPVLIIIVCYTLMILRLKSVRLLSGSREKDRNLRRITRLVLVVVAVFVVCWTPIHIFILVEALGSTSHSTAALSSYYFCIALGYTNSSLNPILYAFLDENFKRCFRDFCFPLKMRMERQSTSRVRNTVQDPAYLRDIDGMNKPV
T10 sequence (P41146 whole entry): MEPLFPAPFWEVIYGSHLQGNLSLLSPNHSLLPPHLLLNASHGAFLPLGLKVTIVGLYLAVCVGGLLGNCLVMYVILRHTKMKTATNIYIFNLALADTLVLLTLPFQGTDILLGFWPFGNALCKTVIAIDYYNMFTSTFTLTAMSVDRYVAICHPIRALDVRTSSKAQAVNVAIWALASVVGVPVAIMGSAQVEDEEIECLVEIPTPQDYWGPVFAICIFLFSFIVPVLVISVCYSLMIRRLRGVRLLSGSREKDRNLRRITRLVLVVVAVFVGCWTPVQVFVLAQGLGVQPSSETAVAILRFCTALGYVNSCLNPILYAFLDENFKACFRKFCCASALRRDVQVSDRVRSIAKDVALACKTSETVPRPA
T7 sequence (P35372 whole entry): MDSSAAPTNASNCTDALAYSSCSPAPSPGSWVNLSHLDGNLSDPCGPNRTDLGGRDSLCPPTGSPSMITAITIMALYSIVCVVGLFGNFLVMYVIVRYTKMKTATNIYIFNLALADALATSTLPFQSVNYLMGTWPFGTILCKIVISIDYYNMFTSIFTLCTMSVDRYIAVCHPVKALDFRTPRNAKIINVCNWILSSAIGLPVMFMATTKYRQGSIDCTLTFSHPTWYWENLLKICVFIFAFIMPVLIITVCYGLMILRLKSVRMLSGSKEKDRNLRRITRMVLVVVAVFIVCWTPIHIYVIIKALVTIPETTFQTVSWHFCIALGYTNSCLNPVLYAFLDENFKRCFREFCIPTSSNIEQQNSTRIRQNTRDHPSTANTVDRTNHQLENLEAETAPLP
T8 sequence (P25103 whole entry): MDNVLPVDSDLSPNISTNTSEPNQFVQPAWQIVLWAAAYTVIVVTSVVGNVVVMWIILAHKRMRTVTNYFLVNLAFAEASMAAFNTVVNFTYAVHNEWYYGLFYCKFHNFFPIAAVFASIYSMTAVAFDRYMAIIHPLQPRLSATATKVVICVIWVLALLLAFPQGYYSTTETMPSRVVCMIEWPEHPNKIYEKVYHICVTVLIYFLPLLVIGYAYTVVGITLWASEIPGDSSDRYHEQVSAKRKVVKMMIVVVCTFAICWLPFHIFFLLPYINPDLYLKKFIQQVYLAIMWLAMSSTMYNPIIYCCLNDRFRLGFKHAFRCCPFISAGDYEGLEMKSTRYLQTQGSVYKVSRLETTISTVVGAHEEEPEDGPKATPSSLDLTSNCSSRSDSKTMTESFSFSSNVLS
T1 sequence (P41143 whole entry): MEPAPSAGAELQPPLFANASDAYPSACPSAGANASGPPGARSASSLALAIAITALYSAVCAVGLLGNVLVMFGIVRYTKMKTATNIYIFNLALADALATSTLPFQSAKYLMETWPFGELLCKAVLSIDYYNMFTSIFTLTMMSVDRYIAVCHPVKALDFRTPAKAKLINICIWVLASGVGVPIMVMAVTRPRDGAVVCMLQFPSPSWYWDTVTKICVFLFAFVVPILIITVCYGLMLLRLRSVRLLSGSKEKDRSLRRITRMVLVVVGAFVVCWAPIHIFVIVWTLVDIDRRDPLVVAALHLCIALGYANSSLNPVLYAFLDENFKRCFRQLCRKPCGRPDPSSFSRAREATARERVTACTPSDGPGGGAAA

SMILES: CSC1O[C@H](COCc2ccc(-c3ccccc3)cc2)[C@@H](O)[C@@H](OCc2ccc(Cl)cc2)[C@H]1NC(=O)CCCNC(=N)N (stereo partly shown) [compound 279]
- A1: inhibition of radioligand binding (Human δ-opioid (DOP); FlashPlate): − (“−” indicates less than 50% inhibition at 10 μM)
- A2: inhibition of radioligand binding (Human κ-Opioid (KOP); filtration): − (“−” indicates less than 50% inhibition at 10 μM)
- A3: inhibition of radioligand binding (Human Melanocortin (MC3); FlashPlate): − (“−” indicates less than 50% inhibition at 10 μM)
- A4: inhibition of radioligand binding (Human Melanocortin (MC4); FlashPlate): − (“−” indicates less than 50% inhibition at 10 μM)
- A5: inhibition of radioligand binding (Human melanocortin (MC5); FlashPlate): + (“+” indicates greater than 50% inhibition at 10 μM)
- A6: inhibition of radioligand binding ([1]; [125I]-S36057, FlashPlate): − (“−” indicates less than 50% inhibition at 10 μM)
- A7: inhibition of radioligand binding (Human μ-opioid (MOP); FlashPlate): − (“−” indicates less than 50% inhibition at 10 μM)
- A8: inhibition of radioligand binding (Human neurokinin (NK1); filtration): + (“+” indicates greater than 50% inhibition at 10 μM)
- A9: inhibition of radioligand binding ([2]; FlashPlate): − (“−” indicates less than 50% inhibition at 10 μM)
- A10: inhibition of radioligand binding (Human opioid (ORL1); FlashPlate): − (“−” indicates less than 50% inhibition at 10 μM)
- A11: inhibition of radioligand binding (Mouse urotensin (mUR2); FlashPlate): − (“−” indicates less than 50% inhibition at 10 μM)

SMILES: Cc1ccc(CO[C@H]2[C@H](O)[C@@H](CO)OC(NC(=O)CCN)[C@@H]2NC(=O)c2ccccc2)cc1 (stereo partly shown) [compound 357]
- A1: inhibition of radioligand binding, human δ-opioid (DOP) (Human δ-opioid (DOP)): − (“−” indicates less than 50% inhibition at 10 μM)
- A2: inhibition of radioligand binding, human κ-opioid (KOP) (Human κ-Opioid (KOP)): − (“−” indicates less than 50% inhibition at 10 μM)
- A3: inhibition of radioligand binding, human melanocortin (MC3) (Human Melanocortin (MC3)): − (“−” indicates less than 50% inhibition at 10 μM)
- A4: inhibition of radioligand binding, human melanocortin (MC4) (Human Melanocortin (MC4)): − (“−” indicates less than 50% inhibition at 10 μM)
- A5: inhibition of radioligand binding, human melanocortin (MC5) (Human melanocortin (MC5)): − (“−” indicates less than 50% inhibition at 10 μM)
- A6: inhibition of radioligand binding, human melanin-concentrating hormone (MCH1) ([1]; [125I]-S36057): + (“+” indicates greater than 50% inhibition at 10 μM)
- A7: inhibition of radioligand binding, human μ-opioid (MOP) (Human μ-opioid (MOP)): − (“−” indicates less than 50% inhibition at 10 μM)
- A8: inhibition of radioligand binding, human neurokinin (NK1) (Human neurokinin (NK1)): − (“−” indicates less than 50% inhibition at 10 μM)
- A9: inhibition of radioligand binding, human neuropeptide Y (NPY-Y1) [2]: − (“−” indicates less than 50% inhibition at 10 μM)
- A10: inhibition of radioligand binding, human opioid (ORL1) (Human opioid (ORL1)): − (“−” indicates less than 50% inhibition at 10 μM)
- A11: inhibition of radioligand binding, mouse urotensin (mUR2) (Mouse urotensin (mUR2)): − (“−” indicates less than 50% inhibition at 10 μM)

SMILES: CO[C@H]1[C@H](O)[C@@H](COCc2ccccc2)OC(OCCc2ccccc2)[C@@H]1NC(=O)CCNC(=N)N (stereo partly shown) [compound 117]
- A1 radioligand binding, percentage inhibition (Human δ-opioid (DOP)): − (“−” indicates less than 50% inhibition at 10 μM)
- A2 radioligand binding, percentage inhibition (Human κ-Opioid (KOP)): + (“+” indicates greater than 50% inhibition at 10 μM)
- A3 radioligand binding, percentage inhibition (Human Melanocortin (MC3)): − (“−” indicates less than 50% inhibition at 10 μM)
- A4 radioligand binding, percentage inhibition (Human Melanocortin (MC4)): − (“−” indicates less than 50% inhibition at 10 μM)
- A5 radioligand binding, percentage inhibition (Human melanocortin (MC5)): − (“−” indicates less than 50% inhibition at 10 μM)
- A6 radioligand binding, percentage inhibition ([1]; [125I]-S36057): − (“−” indicates less than 50% inhibition at 10 μM)
- A7 radioligand binding, percentage inhibition (Human μ-opioid (MOP)): − (“−” indicates less than 50% inhibition at 10 μM)
- A8 radioligand binding, percentage inhibition (Human neurokinin (NK1)): + (“+” indicates greater than 50% inhibition at 10 μM)
- A9 radioligand binding, percentage inhibition [2]: − (“−” indicates less than 50% inhibition at 10 μM)
- A10 radioligand binding, percentage inhibition (Human opioid (ORL1)): − (“−” indicates less than 50% inhibition at 10 μM)
- A11 radioligand binding, percentage inhibition (Mouse urotensin (mUR2)): − (“−” indicates less than 50% inhibition at 10 μM)

SMILES: CSC1OC(COCc2ccc(Cl)cc2)C(O)C(OCc2ccc3ccccc3c2)C1NC(=O)CN (stereo not shown) [compound 306]
- A1: inhibition of radioligand binding, human δ-opioid (DOP) (Human δ-opioid (DOP)): − (“−” indicates less than 50% inhibition at 10 μM)
- A2: inhibition of radioligand binding, human κ-opioid (KOP) (Human κ-Opioid (KOP)): − (“−” indicates less than 50% inhibition at 10 μM)
- A3: inhibition of radioligand binding, human melanocortin (MC3) (Human Melanocortin (MC3)): − (“−” indicates less than 50% inhibition at 10 μM)
- A4: inhibition of radioligand binding, human melanocortin (MC4) (Human Melanocortin (MC4)): − (“−” indicates less than 50% inhibition at 10 μM)
- A5: inhibition of radioligand binding, human melanocortin (MC5) (Human melanocortin (MC5)): − (“−” indicates less than 50% inhibition at 10 μM)
- A6: inhibition of radioligand binding, human melanin-concentrating hormone (MCH1) ([1]; [125I]-S36057): − (“−” indicates less than 50% inhibition at 10 μM)
- A7: inhibition of radioligand binding, human μ-opioid (MOP) (Human μ-opioid (MOP)): − (“−” indicates less than 50% inhibition at 10 μM)
- A8: inhibition of radioligand binding, human neurokinin (NK1) (Human neurokinin (NK1)): + (“+” indicates greater than 50% inhibition at 10 μM)
- A9: inhibition of radioligand binding, human neuropeptide Y (NPY-Y1) [2]: − (“−” indicates less than 50% inhibition at 10 μM)
- A10: inhibition of radioligand binding, human opioid (ORL1) (Human opioid (ORL1)): − (“−” indicates less than 50% inhibition at 10 μM)
- A11: inhibition of radioligand binding, mouse urotensin (mUR2) (Mouse urotensin (mUR2)): − (“−” indicates less than 50% inhibition at 10 μM)

SMILES: NCCC(=O)N[C@H]1C(OCc2ccc3ccccc3c2)O[C@H](COCc2ccc3ccccc3c2)[C@@H](O)[C@@H]1OCc1ccccc1 (stereo partly shown) [compound 448]
- A1: inhibition of radioligand binding (Human δ-opioid (DOP); human DOP membranes): − (“−” indicates less than 50% inhibition at 10 μM)
- A2: inhibition of radioligand binding (Human κ-Opioid (KOP); human KOP membranes): − (“−” indicates less than 50% inhibition at 10 μM)
- A3: inhibition of radioligand binding (Human Melanocortin (MC3); human MC3 membranes, 10 µM): − (“−” indicates less than 50% inhibition at 10 μM)
- A4: inhibition of radioligand binding (Human Melanocortin (MC4); human MC4 membranes): + (“+” indicates greater than 50% inhibition at 10 μM)
- A5: inhibition of radioligand binding (Human melanocortin (MC5); human MC5 membranes): + (“+” indicates greater than 50% inhibition at 10 μM)
- A6: inhibition of radioligand binding ([1]; [125I]-S36057, human MCH1 membranes, 10 µM): − (“−” indicates less than 50% inhibition at 10 μM)
- A7: inhibition of radioligand binding (Human μ-opioid (MOP); human MOP membranes): − (“−” indicates less than 50% inhibition at 10 μM)
- A8: inhibition of radioligand binding (Human neurokinin (NK1); human NK1 membranes): + (“+” indicates greater than 50% inhibition at 10 μM)
- A9: inhibition of radioligand binding ([2]; human NPY-Y1 membranes): − (“−” indicates less than 50% inhibition at 10 μM)
- A10: inhibition of radioligand binding (Human opioid (ORL1); human ORL1 membranes, 10 µM): − (“−” indicates less than 50% inhibition at 10 μM)
- A11: inhibition of radioligand binding (Mouse urotensin (mUR2); mouse mUR2 membranes): − (“−” indicates less than 50% inhibition at 10 μM)
